According to PubChem BioAssay (NCI):
“And” between values parts separate entries of the source, which are not always exact repeats. Equal entries are not always repeated.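 In this assay, cells in 96-well plates receive the compound at five concentrations for 48 hours. Endpoints are linearly interpolated between the surrounding concentrations. GI50: concentration for 50% inhibition of growth. Definition used: TGI = concentration required for complete inhibition of growth.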

How the values were obtained:
Assay in all cases: NCI tumour cell line growth inhibition, 48 h; in the data active = GI50 below about 0.43 µM; inactive = the rest
786-0 renal = tested on: 786-0 renal
A498 renal = tested on: A498 renal
A549 NSCLC = tested on: A549 NSCLC
ACHN renal = tested on: ACHN renal
BT-549 breast = tested on: BT-549 breast
CAKI-1 renal = tested on: CAKI-1 renal
CCRF-CEM leukemia = tested on: CCRF-CEM leukemia
COLO 205 colon = tested on: COLO 205 colon
DU-145 prostate = tested on: DU-145 prostate
EKVX NSCLC = tested on: EKVX NSCLC
HCC-2998 colon = tested on: HCC-2998 colon
HCT-116 colon = tested on: HCT-116 colon
HCT-15 colon = tested on: HCT-15 colon
HL-60(TB) leukemia = tested on: HL-60(TB) leukemia
HOP-62 NSCLC = tested on: HOP-62 NSCLC
HOP-92 NSCLC = tested on: HOP-92 NSCLC
HS 578T breast = tested on: HS 578T breast
HT29 colon = tested on: HT29 colon
IGROV1 ovarian = tested on: IGROV1 ovarian
K-562 leukemia = tested on: K-562 leukemia
KM12 colon = tested on: KM12 colon
LOX IMVI melanoma = tested on: LOX IMVI melanoma
M14 melanoma = tested on: M14 melanoma
MCF7 breast = tested on: MCF7 breast
MDA-MB-231 breast = tested on: MDA-MB-231 breast
MDA-MB-435 = tested on: MDA-MB-435
MDA-N = tested on: MDA-N
MOLT-4 leukemia = tested on: MOLT-4 leukemia
NCI-H226 lung = tested on: NCI-H226 lung
NCI-H23 lung = tested on: NCI-H23 lung
NCI-H460 lung = tested on: NCI-H460 lung
NCI-H522 lung = tested on: NCI-H522 lung
NCI/ADR-RES ovarian = tested on: NCI/ADR-RES ovarian
OVCAR-3 ovarian = tested on: OVCAR-3 ovarian
OVCAR-4 ovarian = tested on: OVCAR-4 ovarian
OVCAR-5 ovarian = tested on: OVCAR-5 ovarian
OVCAR-8 ovarian = tested on: OVCAR-8 ovarian
PC-3 prostate = tested on: PC-3 prostate
RPMI-8226 leukemia = tested on: RPMI-8226 leukemia
SF-268 CNS = tested on: SF-268 CNS
SF-295 CNS = tested on: SF-295 CNS
SF-539 CNS = tested on: SF-539 CNS
SK-MEL-2 melanoma = tested on: SK-MEL-2 melanoma
SK-MEL-28 melanoma = tested on: SK-MEL-28 melanoma
SK-MEL-5 melanoma = tested on: SK-MEL-5 melanoma
SK-OV-3 ovarian = tested on: SK-OV-3 ovarian
SN12C renal = tested on: SN12C renal
SNB-19 CNS = tested on: SNB-19 CNS
SNB-75 CNS = tested on: SNB-75 CNS
SR leukemia = tested on: SR leukemia
SW-620 colon = tested on: SW-620 colon
T-47D breast = tested on: T-47D breast
TK-10 renal = tested on: TK-10 renal
U251 CNS = tested on: U251 CNS
UACC-257 melanoma = tested on: UACC-257 melanoma
UACC-62 melanoma = tested on: UACC-62 melanoma
UO-31 renal = tested on: UO-31 renal
MALME-3M melanoma = tested on: MALME-3M melanoma
RXF 393 renal = tested on: RXF 393 renal

COc1c2c(c3c(c1OC)c(=O)c1ccccc1n3C)OCO2
> 100 µM: TGI (786-0 renal) | TGI (A498 renal) | TGI (A549 NSCLC) | TGI (ACHN renal) | TGI (BT-549 breast) | TGI (CAKI-1 renal) | TGI (CCRF-CEM leukemia) | TGI (COLO 205 colon) | TGI (DU-145 prostate) | TGI (EKVX NSCLC) | TGI (HCC-2998 colon) | TGI (HCT-116 colon) | TGI (HCT-15 colon) | TGI (HL-60(TB) leukemia) | TGI (HOP-62 NSCLC) | TGI (HOP-92 NSCLC) | TGI (HS 578T breast) | TGI (HT29 colon) | TGI (IGROV1 ovarian) | TGI (K-562 leukemia) | TGI (KM12 colon) | TGI (LOX IMVI melanoma) | TGI (M14 melanoma) | TGI (MCF7 breast) | TGI (MDA-MB-231 breast) | TGI (MDA-MB-435) | TGI (MDA-N) | TGI (MOLT-4 leukemia) | TGI (NCI-H226 lung) | TGI (NCI-H23 lung) | TGI (NCI-H460 lung) | TGI (NCI-H522 lung) | TGI (NCI/ADR-RES ovarian) | TGI (OVCAR-3 ovarian) | TGI (OVCAR-4 ovarian) | TGI (OVCAR-5 ovarian) | TGI (OVCAR-8 ovarian) | TGI (PC-3 prostate) | TGI (RPMI-8226 leukemia) | TGI (SF-268 CNS) | TGI (SF-295 CNS) | TGI (SF-539 CNS) | TGI (SK-MEL-2 melanoma) | TGI (SK-MEL-28 melanoma) | TGI (SK-MEL-5 melanoma) | TGI (SK-OV-3 ovarian) | TGI (SN12C renal) | TGI (SNB-19 CNS) | TGI (SNB-75 CNS) | TGI (SR leukemia) | TGI (SW-620 colon) | TGI (T-47D breast) | TGI (TK-10 renal) | TGI (U251 CNS) | TGI (UACC-257 melanoma) | TGI (UACC-62 melanoma) | TGI (UO-31 renal)

CC(C)(C)OC(=O)C1C(=O)NC(=O)CC1CC(OCc1ccccc1)C(OCc1ccccc1)C(COCc1ccccc1)OCc1ccccc1 (stereo unspecified)
> 100 µM and 23.5 µM: TGI (HT29 colon)
> 100 µM and 68.1 µM: TGI (HOP-92 NSCLC)
> 100 µM and 28.5 µM: TGI (A549 NSCLC)
24.8 µM and 16.2 µM: TGI (UO-31 renal)
99.7 µM and 32.6 µM: TGI (RXF 393 renal)
81 µM: TGI (T-47D breast)
> 100 µM and 21.4 µM: TGI (LOX IMVI melanoma)
> 100 µM and 66.1 µM: TGI (MDA-MB-435)
46.5 µM and 11.1 µM: TGI (HL-60(TB) leukemia)
> 100 µM and 45.4 µM: TGI (MALME-3M melanoma)
> 100 µM and 89.6 µM: TGI (MCF7 breast)
> 100 µM and 37.6 µM: TGI (SK-MEL-5 melanoma)
> 100 µM and 28.1 µM: TGI (MOLT-4 leukemia)
> 100 µM and 61.7 µM: TGI (NCI/ADR-RES ovarian)
79.5 µM and > 100 µM: TGI (BT-549 breast)
> 100 µM: TGI (786-0 renal) | TGI (A498 renal) | TGI (ACHN renal) | TGI (CCRF-CEM leukemia) | TGI (DU-145 prostate) | TGI (EKVX NSCLC) | TGI (HCC-2998 colon) | TGI (HCT-116 colon) | TGI (HCT-15 colon) | TGI (HOP-62 NSCLC) | TGI (HS 578T breast) | TGI (IGROV1 ovarian) | TGI (K-562 leukemia) | TGI (M14 melanoma) | TGI (MDA-MB-231 breast) | TGI (MDA-N) | TGI (NCI-H226 lung) | TGI (NCI-H23 lung) | TGI (NCI-H460 lung) | TGI (OVCAR-3 ovarian) | TGI (OVCAR-4 ovarian) | TGI (OVCAR-5 ovarian) | TGI (OVCAR-8 ovarian) | TGI (PC-3 prostate) | TGI (SF-268 CNS) | TGI (SF-295 CNS) | TGI (SF-539 CNS) | TGI (SK-MEL-28 melanoma) | TGI (SN12C renal) | TGI (SNB-19 CNS) | TGI (SNB-75 CNS) | TGI (SR leukemia) | TGI (SW-620 colon) | TGI (TK-10 renal) | TGI (UACC-257 melanoma)
inactive: GI50 (786-0 renal) 47.6 µM and 12.3 µM | GI50 (A549 NSCLC) 26 µM and 5.23 µM | GI50 (ACHN renal) 60.2 µM and 18.8 µM | GI50 (CCRF-CEM leukemia) 60.6 µM and 11.8 µM | GI50 (EKVX NSCLC) 62.2 µM and 12.6 µM | GI50 (HCT-116 colon) 48.5 µM and 17 µM | GI50 (HCT-15 colon) 60.5 µM and 21.4 µM | GI50 (HL-60(TB) leukemia) 16.6 µM and 2.81 µM | GI50 (HOP-62 NSCLC) > 100 µM and 34 µM | GI50 (IGROV1 ovarian) > 100 µM and 22.3 µM | GI50 (K-562 leukemia) 41.5 µM and 11 µM | GI50 (KM12 colon) 39 µM and 5.26 µM | GI50 (LOX IMVI melanoma) 34.7 µM and 8.43 µM | GI50 (M14 melanoma) 55.1 µM and 27.2 µM | GI50 (MALME-3M melanoma) 25.4 µM and 11.4 µM | GI50 (MCF7 breast) 27 µM and 7.19 µM | GI50 (MDA-MB-231 breast) 42.8 µM and 6.81 µM | GI50 (MDA-MB-435) 45.1 µM and 9.81 µM | GI50 (MDA-N) > 100 µM and 34.2 µM | GI50 (MOLT-4 leukemia) 14.1 µM and 3.86 µM | GI50 (NCI-H226 lung) 33 µM and 14 µM | GI50 (NCI-H23 lung) 80.1 µM and 30 µM | GI50 (NCI-H460 lung) 32.7 µM and 12.1 µM | GI50 (NCI/ADR-RES ovarian) 36.8 µM and 12.1 µM | GI50 (OVCAR-8 ovarian) 33.1 µM and 12 µM | GI50 (PC-3 prostate) 54.7 µM and 8.16 µM | GI50 (RPMI-8226 leukemia) 21.5 µM and 7.16 µM | GI50 (SF-268 CNS) 46.8 µM and 16.1 µM | GI50 (SF-539 CNS) > 100 µM and 36.6 µM | GI50 (SK-MEL-28 melanoma) > 100 µM and 18.7 µM | GI50 (SK-MEL-5 melanoma) 22 µM and 10.6 µM | GI50 (SN12C renal) 95 µM and 36.4 µM | GI50 (SNB-19 CNS) 77.1 µM and 35.6 µM | GI50 (SR leukemia) 30.1 µM and 6.47 µM | GI50 (SW-620 colon) 74.5 µM and 23.4 µM | GI50 (U251 CNS) 19.6 µM and 5.39 µM | GI50 (UACC-257 melanoma) 47.8 µM and 15.3 µM | GI50 (UO-31 renal) 11.1 µM and 4.48 µM
> 100 µM and 56.3 µM: TGI (U251 CNS)
> 100 µM and 27.2 µM: TGI (KM12 colon)
> 100 µM and 34.1 µM: TGI (RPMI-8226 leukemia)

O=C(O)c1cccc(S(=O)(=O)NCCO)c1
> 100 µM: TGI (786-0 renal) | TGI (A498 renal) | TGI (A549 NSCLC) | TGI (ACHN renal) | TGI (BT-549 breast) | TGI (CAKI-1 renal) | TGI (CCRF-CEM leukemia) | TGI (COLO 205 colon) | TGI (DU-145 prostate) | TGI (EKVX NSCLC) | TGI (HCT-116 colon) | TGI (HCT-15 colon) | TGI (HL-60(TB) leukemia) | TGI (HOP-62 NSCLC) | TGI (HOP-92 NSCLC) | TGI (HS 578T breast) | TGI (HT29 colon) | TGI (IGROV1 ovarian) | TGI (K-562 leukemia) | TGI (KM12 colon) | TGI (LOX IMVI melanoma) | TGI (M14 melanoma) | TGI (MALME-3M melanoma) | TGI (MCF7 breast) | TGI (MDA-MB-231 breast) | TGI (MDA-MB-435) | TGI (MDA-N) | TGI (MOLT-4 leukemia) | TGI (NCI-H226 lung) | TGI (NCI-H23 lung) | TGI (NCI-H460 lung) | TGI (NCI-H522 lung) | TGI (NCI/ADR-RES ovarian) | TGI (OVCAR-3 ovarian) | TGI (OVCAR-4 ovarian) | TGI (OVCAR-5 ovarian) | TGI (OVCAR-8 ovarian) | TGI (PC-3 prostate) | TGI (RPMI-8226 leukemia) | TGI (RXF 393 renal) | TGI (SF-268 CNS) | TGI (SF-295 CNS) | TGI (SF-539 CNS) | TGI (SK-MEL-2 melanoma) | TGI (SK-MEL-28 melanoma) | TGI (SK-MEL-5 melanoma) | TGI (SK-OV-3 ovarian) | TGI (SN12C renal) | TGI (SNB-19 CNS) | TGI (SNB-75 CNS) | TGI (SR leukemia) | TGI (SW-620 colon) | TGI (T-47D breast) | TGI (TK-10 renal) | TGI (U251 CNS) | TGI (UACC-257 melanoma) | TGI (UACC-62 melanoma) | TGI (UO-31 renal)
